Measurements as given in ChEMBL document CHEMBL1139229, “Design and synthesis of potent inhibitors of the malaria parasite dihydroorotate dehydrogenase” (J Med Chem, 2007).
Where a chain is given by its changes, count along the chain named. The source made the active and inactive calls. The rule behind the calls is not given here.

Tests used:
[1] = target: Dihydroorotate dehydrogenase (quinone), mitochondrial (Homo sapiens, UniProt Q02127); assay: Inhibition of human recombinant DHODH
[2] = target: T1, Dihydroorotate dehydrogenase (Plasmodium falciparum, UniProt Q54A96); assay: (§1) Inhibition of recombinant Plasmodium falciparum DHODH
T1 sequence (Q54A96 whole entry): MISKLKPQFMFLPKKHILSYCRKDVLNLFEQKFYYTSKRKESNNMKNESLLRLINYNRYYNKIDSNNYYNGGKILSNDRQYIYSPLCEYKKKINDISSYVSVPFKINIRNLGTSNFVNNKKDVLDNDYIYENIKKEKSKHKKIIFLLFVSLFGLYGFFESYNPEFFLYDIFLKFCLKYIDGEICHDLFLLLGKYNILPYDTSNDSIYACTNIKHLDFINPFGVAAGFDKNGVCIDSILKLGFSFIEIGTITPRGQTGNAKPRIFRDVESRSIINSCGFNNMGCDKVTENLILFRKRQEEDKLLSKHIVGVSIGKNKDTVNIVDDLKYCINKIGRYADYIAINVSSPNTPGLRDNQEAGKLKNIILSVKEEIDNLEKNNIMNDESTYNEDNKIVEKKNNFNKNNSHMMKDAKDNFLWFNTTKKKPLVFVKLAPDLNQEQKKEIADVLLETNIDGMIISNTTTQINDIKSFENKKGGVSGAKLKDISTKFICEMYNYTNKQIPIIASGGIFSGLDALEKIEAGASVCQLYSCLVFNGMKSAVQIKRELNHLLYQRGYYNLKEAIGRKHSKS

[3] = Selectivity for Plasmodium falciparum recombinant DHODH over human recombinant DHODH
[4] = tested on: T2, Dihydroorotate dehydrogenase (quinone), mitochondrial (Plasmodium falciparum (isolate 3D7)), Q08210 [F188A]; assay: Inhibition of Plasmodium falciparum DHODH F188A mutant
T2 sequence (whole entry): T1 sequence (Q54A96 whole entry) with F188A

[5] = target: T3, Dihydroorotate dehydrogenase (Plasmodium falciparum) (UniProt Q54A96); assay: Inhibition of recombinant Plasmodium falciparum DHODH at 10 uM
T3 sequence (whole entry): T1 sequence (Q54A96 whole entry)

[6] = tested on: Plasmodium falciparum; assay: Antimalarial activity against Plasmodium falciparum NF54 3D7 after 48 hrs; format: functional, organism-based; details: NF54/3D7, 48 h
[7] = compound: CCCCCCCCCCC1=C(C)C(=O)C(OC)=C(OC)C1=O; assay: as §1
[8] = compound: O=C1CC(C(=O)O)NC(=O)N1; assay: as §1

Dihydroorotate dehydrogenase (quinone), mitochondrial, sequence (Q02127 whole entry): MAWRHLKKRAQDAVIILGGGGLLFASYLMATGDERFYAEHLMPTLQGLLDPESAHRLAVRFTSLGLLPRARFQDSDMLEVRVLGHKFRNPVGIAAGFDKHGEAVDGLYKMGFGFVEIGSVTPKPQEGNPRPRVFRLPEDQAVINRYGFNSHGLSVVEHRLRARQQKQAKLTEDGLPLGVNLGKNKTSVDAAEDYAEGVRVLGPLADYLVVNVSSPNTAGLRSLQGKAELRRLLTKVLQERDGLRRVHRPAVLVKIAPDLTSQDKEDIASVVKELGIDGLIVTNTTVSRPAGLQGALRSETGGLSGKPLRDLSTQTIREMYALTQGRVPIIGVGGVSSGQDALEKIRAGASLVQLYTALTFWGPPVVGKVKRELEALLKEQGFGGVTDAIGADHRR

In the case of `CCOC(=O)C(=CNc1ccc(-c2ccccc2)cc1)C(=O)OCC`, the IC50 [1] is reported as over 500 µM and the IC50 [2] is reported as over 500 µM.

For `CCOC(=O)/C(C#N)=C\Nc1cccc(-c2ccccc2)c1`, the Selectivity ratio [3] was 10, the IC50 [1] was 220 µM and the Ki [1] was 0.027 µM.

With `Cc1c(C(=O)Nc2cc(Cl)cc(Cl)c2)cccc1[N+](=O)[O-]` the Selectivity ratio [3] was 2280, the Ki [1] was 64.4 µM and the IC50 [2] was 0.23 µM. For the same molecule, the Ki [2] was 0.03 µM and the Activity [4] was “inactive”.

`CCOC(=O)C(=CNc1ccc2[nH]cnc2c1)C(=O)OCC` gave an IC50 [1] of over 500 µM, an inhibition [5] of over 10% and an IC50 [2] of 349 µM. The Ki [2] was 40.2 µM.

For `CCOC(=O)/C(C#N)=C\Nc1ccc2c(c1)c1ccccc1n2CC`, the Selectivity ratio [3] was 1210, the IC50 [1] was 491 µM and the Ki [1] was 60.4 µM. It also gave an IC50 [6] of 4 µM, an inhibition [5] of over 10% and an IC50 [2] of 0.44 µM. It also gave a Ki [2] of 0.05 µM.

In the case of `C/C(O)=C(\C#N)C(=O)Nc1ccc(C(F)(F)F)cc1`, the Activity [4] is reported as “inactive”.

Work on `CCOC(=O)C(=CNc1ccc2[nH]ncc2c1)C(=O)OCC` yielded a Selectivity ratio [3] of 5, an IC50 [1] of 123 µM and a Ki [1] of 15.1 µM. For the same molecule, the inhibition [5] was over 10%, the IC50 [2] was 27.8 µM and the Ki [2] was 3.2 µM.

In the case of `CCOC(=O)C(=CNc1ccc(C)cc1)C(=O)OCC`, the Selectivity ratio [3] is reported as 4, the IC50 [1] is reported as 146 µM and the Ki [1] is reported as 17.9 µM. The inhibition [5] was over 10%, the IC50 [2] was 40 µM and the Ki [2] was 4.6 µM.

For `Cc1cc(Br)ccc1NC(=O)c1ccc2ccccc2c1`, the Selectivity ratio [3] was 2310, the Ki [1] was 50.9 µM and the IC50 [2] was 0.18 µM. The Ki [2] was 0.02 µM and the Activity [4] was “inactive”.

For `CCOC(=O)C(=CNc1ccccc1C)C(=O)OCC`, the Selectivity ratio [3] was 1, the IC50 [1] was 292 µM and the Ki [1] was 35.9 µM. The inhibition [5] was over 10%, the IC50 [2] was 346 µM and the Ki [2] was 39.7 µM.

In the case of `CCOC(=O)C(=CNc1cccc(-c2ccccc2)c1)C(=O)OCC`, the Selectivity ratio [3] is reported as 1, the IC50 [1] is reported as 104 µM and the Ki [1] is reported as 12.8 µM. The IC50 [2] was 86.7 µM and the Ki [2] was 10 µM.

`CCOC(=O)/C(C#N)=C\Nc1ccc(-c2ccccc2)cc1` showed an IC50 [1] of over 500 µM and an IC50 [2] of over 500 µM.

With `CCOC(=O)C(=CNc1ccc2sc3ccccc3c2c1)C(=O)OCC` the Selectivity ratio [3] was 182, the IC50 [1] was 29.6 µM and the Ki [1] was 3.63 µM. It also gave an IC50 [6] of 1.8 µM, an inhibition [5] of over 10% and an IC50 [2] of 0.16 µM. The Ki [2] was 0.02 µM.

B1: Dihydroorotate dehydrogenase (Plasmodium falciparum), Q54A96 (protein)
chain: T1 sequence (Q54A96 whole entry)
With B1 the Km [7] was 13.4 µM and the Km [8] was 31.4 µM.
